Data published in US20230150984A1, “NICOTINAMIDE MONONUCLEOTIDE AND NICOTINAMIDE RIBOSIDE DERIVATIVES AND USE THEREOF IN THE TREATMENT OF VIRAL INFECTIONS AND RESPIRATORY COMPLICATIONS, IN […] BY INFL[…] CORONAVIRUS” (NUVAMID SA, priority 2020, published 2023).
Entries after “also recorded” stand apart in the source; their conditions may differ.

What was measured:
[1] = tested on: Influenza virus H1N1 PR/8/34 strain; assay: Compound I-A dose-response on influenza virus pulmonary infection (Example 8); format: in vivo, mice; details: for Remaining mice, Day 10 / Remaining mice, Day 14: 500 PFU H1N1 PR/8/34, 12 mice; for viral load in lung: 8 days after infection with 500 PFU of influenza A virus
Protocol: The model consists in intranasal administration of 500 PFU of Influenza virus H1N1 PR/8/34 strain to induce pneumonia. Compound I-A was delivered by intraperitoneal (i.p.) route at 90, 185 or 500 mg/kg immediately after infection and then daily during all the experiment. Mice were daily weighed to adapt the volume of compounds. Physiological buffer was used as control and was administrated by i.p once per day during all the experiment. Each experimental group comprises 22 mice: 12 mice for the survival study, 5 mice of the flow cytometry analysis and 5 mice for the assessment of viral load.
The experimental groups are the following: • Group 1: Vehicle (i.p.) • Group 2: Compound I-A 90 mg/kg • Group 3: Compound I-A 185 mg/kg • Group 4: Compound I-A 500 mg/kg
At day 8, 5 mice per group are use to measure the following parameters. • Blood collection: 3 aliquots (a, b and c) a)+ac. perchlorique (NAD dosage) b) immune cell characterization (cytometry) c) remaining plasma->freezing • Lung and lymph nodes collection, cell preparation, counting and immune cell characterization (cytometry) • Remaining cells (if any) from the 2 tissues treated for RNAseq • Viral load in the lungs (5 mice per group)
Survival rates, body weight, clinical scores, viral load in lungs and quantification of subsets of immune population in lung, blood and draining lymph node at day 8 post-infection by flow cytometry were monitored during all the experiment.
Survival (FIG. 11): Animals which lost 25% or more bodyweight, were euthanized for ethical reasons and considered as dead. Survival rates were monitored during all the experiment. […]

[2] = tested on: Influenza virus H1N1 PR/8/34; assay: Murine influenza virus H1N1 PR/8/34 pulmonary infection, lethal dose (Example 2); format: in vivo, mice; details: for body weight evolution D0 to D14 in comparison to vehicle / clinical score / clinical states of the mice D0 to D14: 500 PFU H1N1, I-A 185 mg/kg i.p., Tamiflu 1 mg/kg oral twice a day; for viral load in lung: 8 days after infection with 500 PFU of influenza A virus, vs vehicle group; for survival rate at D14: mice infected intranasally with 500 PFU H1N1 PR/8/34, Tamiflu 1 mg/kg oral gavage twice a day, D0-D14
H1N1 = assay: NMN and NR on influenza virus pulmonary infection in mice (Example 7); format: in vivo; details: H1N1 infected mice; for Remaining mice, Day 11 / Remaining mice, Day 14: 12 per group, loss of 25% or more bodyweight counted as dead; for Remaining mice, Day 11 / Remaining mice, Day 14 / survival rate at the end of the experiment: I-A or I-G 185 mg/kg i.p. daily, Tamiflu 2x1 mg/kg oral; for body weight loss in comparison to vehicle: I-A or I-G 185 mg/kg, Tamiflu 2 mg/kg, D0 to D14
Protocol: The compounds I-A and I-G were delivered by intraperitoneal route at 185 mg/kg daily during all the experiment. 72 mice were daily weighed to adapt the volume of compounds. Physiological buffer was used as control and was administrated by i.p once per day during all the experiment. Control animals were orally administrated with Tamiflu at 2 mg/kg during all the experiment. Each animal has been infected with H1N1. The experimental groups are as follows: • vehicle: H1N1 infection+physiological buffer • Tamiflu: H1N1 infection+Tamiflu (2×1 mg/kg) • Compound I-A: H1N1 infection+NMN (185 mg/kg) • Compound I-G: H1N1 infection+NR (185 mg/kg) • Tamiflu+Compound I-A: H1N1 infection+Tamiflu (2×1 mg/kg)+Compound I-A (185 mg/kg) • Tamiflu+Compound I-G: H1N1 infection+Tamiflu (2×1 mg/kg)+Compound I-G (185 mg/kg)
Survival rates, body weight and clinical scores were monitored during all the experiment.
Survival rates (FIG. 7): Animals which lost 25% or more bodyweight, were euthanized for ethical reasons and considered as dead. Survival rates were monitored during all the experiment. […]
Respiratory scoring (FIG. 10): the respiratory scoring was assessed according to the following criteria: […]

[3] = I-A 90, 185 or 500 mg/kg i.p. daily

## NC(=O)c1ccc[n+]([C@@H]2O[C@H](COP(=O)(O)O)[C@@H](O)[C@H]2O)c1 [Compound I-A, Nicotinamide mononucleotide]
[1]; I-A 90 mg/kg i.p. daily
  mice survival rate: 33%
  Remaining mice, Day 10: 8/12
  Remaining mice, Day 14: 4/12
[1]; I-A 90 mg/kg
  viral load in lung: no significative impact
[1]; I-A 185 mg/kg i.p. daily
  mice survival rate: 58%
  Remaining mice, Day 10: 12/12
  Remaining mice, Day 14: 7/12
[1]; I-A 185 mg/kg
  viral load in lung: no significative impact
[1]; I-A 500 mg/kg i.p. daily
  mice survival rate: 75%
  Remaining mice, Day 10: 10/12
  Remaining mice, Day 14: 9/12
[1]; I-A 500 mg/kg, 8 days after infection, in comparison to the vehicle group
  viral load in lung (quantity of H1N1 particles): significantly reduced the quantity of H1N1 particles
[1]; [3]
  body weight in comparison to vehicle (D3-D8): weak improvement
  clinical scores / clinical states of the mice compared to vehicle group: improved clinical states
[1]; lung, day 8, flow cytometry
  modulation of the recruitment of monocyte derived macrophages: not observed
  number of CD11b+DC: tended to be reduced
  proportion of CD206+ macrophages: increased
[1]; lung, day 8, flow cytometry, effect did not seem dose dependent
  destruction of alveolar macrophages due to the infection: reduced
[2]
  body weight evolution D0 to D14 in comparison to vehicle: slight improvement
  clinical score / clinical states of the mice D0 to D14: significantly improved clinical states
  viral load in lung: no impact
[2]; D8, cytometry on blood
  H1N1 induced lymphopenia in blood (T cells levels): reduced H1N1 induced lymphopenia
[2]; D8 post-inoculation, cytometry on lung
  recruitment of monocyte-derived macrophages and dendritic cells and CD8+ T cells in infected lungs: reduced the recruitment
[2]; D8 post-inoculation, in comparison to vehicle and oseltamivir-treated animals
  circulating monocytes: decreased circulating monocytes
[2]; I-A 185 mg/kg i.p. once a day, compared to untreated control animals or oseltamivir, 185 mg/kg
  animal mortality / efficacy on survival: reduce animal mortality; also recorded: more effective than oseltamivir
[2]; I-A 185 mg/kg i.p. once a day
  survival rate at D14: 67%
H1N1
  Remaining mice, Day 11: 7/12
  Remaining mice, Day 14: 7/12
  survival rate at the end of the experiment: 58%
  body weight loss in comparison to vehicle: decrease the body weight loss

## NC(=O)c1ccc[n+]([C@@H]2O[C@H](CO)[C@@H](O)[C@H]2O)c1 [Compound I-G, NICOTINAMIDE RIBOSIDE]
H1N1
  Remaining mice, Day 11: 6/12
  Remaining mice, Day 14: 6/12
  survival rate at the end of the experiment: 50%
  body weight loss in comparison to vehicle: decrease the body weight loss

## CCOC(=O)C1=C[C@@H](OC(CC)CC)[C@H](NC(C)=O)[C@@H](N)C1 [Tamiflu, oseltamivir, reference compound]
[2]
  body weight evolution D0 to D14 in comparison to vehicle: slight improvement
  clinical score / clinical states of the mice D0 to D14: significantly improved clinical states
  viral load in lung: no impact
[2]; I-A 185 mg/kg i.p. once a day
  survival rate at D14: 58%
H1N1
  Remaining mice, Day 11: 8/12
  Remaining mice, Day 14: 6/12
  survival rate at the end of the experiment: 50%
  body weight loss in comparison to vehicle: decrease the body weight loss
